Experiments:
[1] = test system: SREBP-1, FAS, PPAR-γ, and aP2; assay: Real-time RT-PCR of fat-induced genes in liver tissue of fatty liver mice; assay type: in vivo, mouse; details: UFAs feed 8 weeks, imiquimod 0.1 mg/kg twice a week, liver mRNA
Procedure: (§1) C57BL6/J mice (Daehan Biolink, Daejeon, Korea) that induced obesity with feed containing 45% UFAs for 8 weeks and a knockout mouse (TLR7 KO) from Dr. Akira (Osaka University, Suita, Japan) in which TLR7 is not inherently present, were used. For this purpose, imiquimod was injected twice a week at a concentration of 0.1 mg/kg, while fatty liver model was made by feeding only high unsaturated fat diet (UFAs diet with 45% of the calories, Daehan Biolink, Daejeon, Korea) for 8 weeks.
Fat-induced genes such as SREBP-1, FAS, PPAR-γ, and aP2 were increased in liver tissues from liver-derived mice fed UFAs compared to the control group.

C57BL6/J mice [2] = assay: Serological analysis of fatty liver mice (AST, ALT, triglyceride, total cholesterol); assay type: in vivo, mouse; details: UFAs feed 8 weeks, imiquimod 0.1 mg/kg twice a week
Procedure: as §1

LC3A/B and IGF-1 [3] = assay: LC3A/B and IGF-1 protein levels in UFAs-treated mouse hepatocytes; assay type: cell-based; details: proteins isolated from hepatocytes, imiquimod treatment
Procedure: (§2) The imiquimod purchased in Example 1 was tested in cells. Mouse hepatocytes were obtained by cellizing liver tissues isolated from normal C57BL6/J mice and TLR7 KO mice lacking the TLR7 gene and fat accumulation was induced by treatment with 10 mM of unsaturated fatty acid (UFAs) mixed with arachidonic acid (Sigma, USA) and oleic acid (Sigma, USA) 1:1.
(§3) Cells were incubated at 37° C., 5% of CO2. DMEM (Dulbecco's modified Eagle's medium) containing 10% fetal bovine serum (FBS) and antibiotic (penicillin/streptomycin; Gibco, USA) was used as the cell culture medium. Every two days, the surface of the cultured cells was washed with phosphate buffered saline (PBS) and cells were isolated by treatment with 0.5% trypsin and then subcultured.
(§4) The imiquimod was treated at the concentration of 10 μg/ml 1 hour before the start of the experiment. UFAs were then added and the fat accumulation was assessed after 48 hours.
In FIG. 3, expression of autophagosome associated with congenital immunity and IGF-1 associated with fatty liver development was compared and evaluated. According to recently published international journals, It has been reported that as the expression of LC3A/B, an indicator of autophagosome increases, fatty liver improves, and as IGF-1 is inhibited, the fatty liver improves.

[4] = test system: SREBP-1, FAS, aP2 and PPARγ gene expression; assay: Real time RT-PCR of fat-related genes in UFAs-treated mouse hepatocytes; assay type: cell-based; details: imiquimod 10 μg/ml
Procedure: as §2, §3, §4
To determine the level of RNA expression at the gene level of fatty acid synthase (FAS), SREBP-1 (sterol regulatory element binding protein-1), PPARγ (peroxisome proliferator-activated receptor), and aP2 (fatty acid binding protein 4), real time RT-PCR (ABI Step One Plus Sequence System, Applied Biosystems, Singapore) was performed. The PPARγ and FAS are directly related to fat metabolism, and since the metabolism is regulated by the aP2 and SREBP-1 factor, it was determined whether imiquimod affects the factor.
From the above results, it was confirmed that imiquimod inhibited lipid accumulation in hepatocytes through inhibition of SREBP-1, FAS, aP2 and PPARγ gene expression.

LC3A/B and IGF-1 [5] = assay: LC3A/B and IGF-1 protein expression in liver tissue of fatty liver mice; assay type: in vivo, mouse; details: fatty liver induced by UFAs, imiquimod 0.1 mg/kg twice a week, proteins from liver tissue
Procedure: as §1
Autophagosome associated with congenital immunity, and expression of IGF-1 associated with fatty liver development were compared and evaluated with proteins isolated from liver tissue. Similar to the protein isolated from the hepatocytes, and expression of TLR7 and its downstream transcript Myd88 was also confirmed, and as a result, we confirmed that imiquimod affects the expression of LC3A/B, an autophagosome marker, and IGF-1, a hepatocyte-producing protein, through TLR7 hyperactivity.

C57BL6/J mice [6] = assay: Triglyceride and cholesterol in liver tissue of fatty liver mice (ELISA); assay type: in vivo, mouse; details: UFAs feed 8 weeks, imiquimod 0.1 mg/kg twice a week
Procedure: as §1
The liver tissues separated from the mouse were finely crushed to prepare analytical samples, and the levels of triglyceride and cholesterol were measured using Enzyme Linked ImmunoSorbent Assay (ELISA) (FIG. 7).

C57BL6/J mice [7] = assay: Fatty liver in mice fed high unsaturated fat diet, liver tissue and H & E staining; assay type: in vivo, mouse; details: 45% UFAs diet 8 weeks, imiquimod 0.1 mg/kg injected twice a week
Procedure: as §1
As a result of H & E staining of tissue sections, balloon, a sign of fat accumulation between cells and cells, was found in UFAs fed mice, which was confirmed to be improved by imiquimod injection.

Mouse hepatocytes = assay: Fat accumulation in UFAs-treated mouse hepatocytes (oil-red-o staining, absorbance at 540 nm); assay type: cell-based; details: imiquimod 10 μg/ml 1 hour before UFAs, 48 hours, vs group without treatment
Procedure: as §2, §3, §4
In order to confirm that imiquimod inhibits the fat accumulation effect in hepatocytes, the cells were cultured for 48 hours after the reagent treatment according to the method of Example 2 above. The cells were stained with an oil-red-o reagent (Lifeline Cell Technology, Carlsbad, Calif., USA) and the accumulation of fat was visually evaluated (FIG. 1).

CC(C)Cn1cnc2c(N)nc3ccccc3c21 [imiquimod]
FAS gene expression in liver tissue [1]: significantly reduced | PPAR-γ gene expression in liver tissue [1]: significantly reduced | SREBP-1 gene expression in liver tissue [1]: significantly reduced | aP2 gene expression in liver tissue [1]: significantly reduced | serum ALT level (C57BL6/J mice [2]): significantly decreased | serum AST level (C57BL6/J mice [2]): significantly decreased | serum cholesterol level (C57BL6/J mice [2]): significantly reduced | serum triglyceride level (C57BL6/J mice [2]): significantly reduced | IGF-1 protein level (LC3A/B and IGF-1 [3]; IGF-1 increased by UFAs): decreases | LC3A/B (indicator of autophagosome) protein level (LC3A/B and IGF-1 [3]; LC3A/B inhibited by UFAs): significant increases | expression of FAS [4]: inhibited the expression | expression of PPARγ [4]: inhibited the expression | expression of SREBP-1 [4]: inhibited the expression | expression of aP2 [4]: inhibited the expression | IGF-1 expression in liver tissue (LC3A/B and IGF-1 [5]): decreased | LC3A/B expression in liver tissue (LC3A/B and IGF-1 [5]): significantly increased | cholesterol level in liver tissue (C57BL6/J mice [6]): significant reductions | triglyceride level in liver tissue (C57BL6/J mice [6]): significant reductions | balloon (sign of fat accumulation), H & E staining of tissue sections (C57BL6/J mice [7]): improved | development of fatty liver (evaluation of liver tissue) (C57BL6/J mice [7]): significant inhibition | level of fat (absorbance at 540 nm) (Mouse hepatocytes): lower than that in the group without treatment
